# Data reported in ChEMBL document CHEMBL3885881, “DrugMatrix”.
# Species on record: Rattus norvegicus
# Assay: DrugMatrix - Regimen: Daily Repeat
# Assay type: toxicity, organism-based, Sprague-Dawley
# Set-up: regimen Daily Repeat, gender Male, age 6-8 weeks
# Settings: in vivo, po, route oral GAVAGE, vehicle 100 % SALINE; for ABSOLUTE BASOPHIL / ABSOLUTE EOSINOPHIL / ABSOLUTE LYMPHOCYTE / ABSOLUTE MONOCYTE / ABSOLUTE SEGMENTED NEUTROPHIL / BASOPHIL / EOSINOPHIL / ERYTHROCYTE COUNT / HEMATOCRIT / HEMOGLOBIN / LEUKOCYTE COUNT / LYMPHOCYTE / MEAN CORPUSCULAR HEMOGLOBIN / MEAN CORPUSCULAR HEMOGLOBIN CONCENTRATION / MEAN CORPUSCULAR VOLUME / MONOCYTE / NEUTROPHIL / NUCLEATED RED BLOOD CELLS / PLATELET COUNT: tissue Blood; for ALANINE AMINOTRANSFERASE / ALBUMIN / ALKALINE PHOSPHATASE / ASPARTATE AMINOTRANSFERASE / BLOOD UREA NITROGEN / CARBON DIOXIDE / CHLORIDE / CHOLESTEROL / CREATINE PHOSPHOKINASE / CREATININE / GLUCOSE / LACTATE DEHYDROGENASE / LIPASE / PHOSPHORUS / POTASSIUM / SODIUM / TOTAL BILIRUBIN / TOTAL PROTEIN / URIC ACID: tissue Plasma
# [1] = 10 mg/kg, […], dose level Low, time 7 day
# [2] = 30 mg/kg, 72 h, dose level High, time 3 day
# [3] = 30 mg/kg, […], dose level High, time 7 day
smiles,measurement,setting,value
O=[As][O-].[Na+] [SODIUM ARSENITE],ABSOLUTE BASOPHIL,[1],0 CELLS/uL
same,ABSOLUTE EOSINOPHIL,[1],0 CELLS/uL
same,ABSOLUTE LYMPHOCYTE,[1],8882.33 CELLS/uL
same,ABSOLUTE MONOCYTE,[1],292.83 CELLS/uL
same,ABSOLUTE SEGMENTED NEUTROPHIL,[1],1158.17 CELLS/uL
same,BASOPHIL,[1],0%
same,EOSINOPHIL,[1],0%
same,ERYTHROCYTE COUNT,[1],5.16 x10E6/uL
same,HEMATOCRIT,[1],33.38%
same,HEMOGLOBIN,[1],13.23 G/DL
same,LEUKOCYTE COUNT,[1],10.33 x10E3/uL
same,LYMPHOCYTE,[1],86.17%
same,MEAN CORPUSCULAR HEMOGLOBIN,[1],25.68 pg
same,MEAN CORPUSCULAR HEMOGLOBIN CONCENTRATION,[1],39.65 G/DL
same,MEAN CORPUSCULAR VOLUME,[1],64.67 fL
same,MONOCYTE,[1],2.83%
same,NEUTROPHIL,[1],11%
same,NUCLEATED RED BLOOD CELLS,[1],0 /100WBC
same,PLATELET COUNT,[1],1191.67 x10E3/uL
same,ALANINE AMINOTRANSFERASE,[1],43 u/L
same,ALBUMIN,[1],4.45 G/DL
same,ALKALINE PHOSPHATASE,[1],255.83 u/L
same,ASPARTATE AMINOTRANSFERASE,[1],72.83 u/L
same,BLOOD UREA NITROGEN,[1],13 mg/dL
same,CARBON DIOXIDE,[1],29.83 mmol/L
same,CHLORIDE,[1],98.83 MEQ/L
same,CHOLESTEROL,[1],69.17 mg/dL
same,CREATINE PHOSPHOKINASE,[1],248.67 u/L
same,CREATININE,[1],0.18 mg/dL
same,GLUCOSE,[1],139.17 mg/dL
same,LACTATE DEHYDROGENASE,[1],91.83 u/L
same,LIPASE,[1],10.5 u/L
same,PHOSPHORUS,[1],11.75 mg/dL
same,POTASSIUM,[1],6.25 MEQ/L
same,SODIUM,[1],143.22 MEQ/L
same,TOTAL BILIRUBIN,[1],0.15 mg/dL
same,TOTAL PROTEIN,[1],5.95 G/DL
same,URIC ACID,[1],0.93 mg/dL
same,ABSOLUTE BASOPHIL,[2],0 CELLS/uL
same,ABSOLUTE EOSINOPHIL,[2],24.17 CELLS/uL
same,ABSOLUTE LYMPHOCYTE,[2],11880.83 CELLS/uL
same,ABSOLUTE MONOCYTE,[2],220.67 CELLS/uL
same,ABSOLUTE SEGMENTED NEUTROPHIL,[2],724.33 CELLS/uL
same,BASOPHIL,[2],0%
same,EOSINOPHIL,[2],0.17%
same,ERYTHROCYTE COUNT,[2],5.56 x10E6/uL
same,HEMATOCRIT,[2],36.35%
same,HEMOGLOBIN,[2],12.9 G/DL
same,LEUKOCYTE COUNT,[2],12.85 x10E3/uL
same,LYMPHOCYTE,[2],92.17%
same,MEAN CORPUSCULAR HEMOGLOBIN,[2],23.27 pg
same,MEAN CORPUSCULAR HEMOGLOBIN CONCENTRATION,[2],35.48 G/DL
same,MEAN CORPUSCULAR VOLUME,[2],65.6 fL
same,MONOCYTE,[2],1.83%
same,NEUTROPHIL,[2],5.83%
same,NUCLEATED RED BLOOD CELLS,[2],0 /100WBC
same,PLATELET COUNT,[2],1116 x10E3/uL
same,ALANINE AMINOTRANSFERASE,[2],34.67 u/L
same,ALBUMIN,[2],3.6 G/DL
same,ALKALINE PHOSPHATASE,[2],172.83 u/L
same,ASPARTATE AMINOTRANSFERASE,[2],76.5 u/L
same,BLOOD UREA NITROGEN,[2],11.33 mg/dL
same,CARBON DIOXIDE,[2],26.83 mmol/L
same,CHLORIDE,[2],102.5 MEQ/L
same,CHOLESTEROL,[2],75 mg/dL
same,CREATINE PHOSPHOKINASE,[2],194.17 u/L
same,CREATININE,[2],0.16 mg/dL
same,GLUCOSE,[2],125.67 mg/dL
same,LACTATE DEHYDROGENASE,[2],103.33 u/L
same,LIPASE,[2],11.83 u/L
same,PHOSPHORUS,[2],9.52 mg/dL
same,POTASSIUM,[2],5.42 MEQ/L
same,SODIUM,[2],143 MEQ/L
same,TOTAL BILIRUBIN,[2],0.18 mg/dL
same,TOTAL PROTEIN,[2],5.17 G/DL
same,URIC ACID,[2],0.68 mg/dL
same,ABSOLUTE BASOPHIL,[3],0 CELLS/uL
same,ABSOLUTE EOSINOPHIL,[3],81.83 CELLS/uL
same,ABSOLUTE LYMPHOCYTE,[3],12174.33 CELLS/uL
same,ABSOLUTE MONOCYTE,[3],445.83 CELLS/uL
same,ABSOLUTE SEGMENTED NEUTROPHIL,[3],2681.33 CELLS/uL
same,BASOPHIL,[3],0%
same,EOSINOPHIL,[3],0.5%
same,ERYTHROCYTE COUNT,[3],5.27 x10E6/uL
same,HEMATOCRIT,[3],32.5%
same,HEMOGLOBIN,[3],12.83 G/DL
same,LEUKOCYTE COUNT,[3],15.38 x10E3/uL
same,LYMPHOCYTE,[3],81%
same,MEAN CORPUSCULAR HEMOGLOBIN,[3],24.38 pg
same,MEAN CORPUSCULAR HEMOGLOBIN CONCENTRATION,[3],39.47 G/DL
same,MEAN CORPUSCULAR VOLUME,[3],61.75 fL
same,MONOCYTE,[3],2.67%
same,NEUTROPHIL,[3],15.83%
same,NUCLEATED RED BLOOD CELLS,[3],0 /100WBC
same,PLATELET COUNT,[3],966.33 x10E3/uL
same,ALANINE AMINOTRANSFERASE,[3],39.67 u/L
same,ALBUMIN,[3],4.02 G/DL
same,ALKALINE PHOSPHATASE,[3],141.83 u/L
same,ASPARTATE AMINOTRANSFERASE,[3],90 u/L
same,BLOOD UREA NITROGEN,[3],16 mg/dL
same,CARBON DIOXIDE,[3],27 mmol/L
same,CHLORIDE,[3],100.17 MEQ/L
same,CHOLESTEROL,[3],65.83 mg/dL
same,CREATINE PHOSPHOKINASE,[3],152.83 u/L
same,CREATININE,[3],0.14 mg/dL
same,GLUCOSE,[3],126.83 mg/dL
same,LACTATE DEHYDROGENASE,[3],98.33 u/L
same,LIPASE,[3],9.83 u/L
same,PHOSPHORUS,[3],9.15 mg/dL
same,POTASSIUM,[3],5.46 MEQ/L
same,SODIUM,[3],142.78 MEQ/L
same,TOTAL BILIRUBIN,[3],0.13 mg/dL
same,TOTAL PROTEIN,[3],5.38 G/DL
same,URIC ACID,[3],0.55 mg/dL
